From patent publication US6927226B2, “Antidepressant azaheterocyclymethyl derivatives of 7,8-dihydro-3H-6,9-dioxa-1,3-diazacyclopenta[a]naphthalene” (Wyeth, priority 2001, dated 2005) come the findings set out here.

Counter-ions that a name gives are not always drawn. Like-named read-outs stand apart in the source and are kept apart here.

Data set [1] concerns the target T1, cloned human 5-HT1A receptors (Homo sapiens, UniProt P08908).
T1 construct: expressed in transfected cells
T1 sequence (P08908 1-422): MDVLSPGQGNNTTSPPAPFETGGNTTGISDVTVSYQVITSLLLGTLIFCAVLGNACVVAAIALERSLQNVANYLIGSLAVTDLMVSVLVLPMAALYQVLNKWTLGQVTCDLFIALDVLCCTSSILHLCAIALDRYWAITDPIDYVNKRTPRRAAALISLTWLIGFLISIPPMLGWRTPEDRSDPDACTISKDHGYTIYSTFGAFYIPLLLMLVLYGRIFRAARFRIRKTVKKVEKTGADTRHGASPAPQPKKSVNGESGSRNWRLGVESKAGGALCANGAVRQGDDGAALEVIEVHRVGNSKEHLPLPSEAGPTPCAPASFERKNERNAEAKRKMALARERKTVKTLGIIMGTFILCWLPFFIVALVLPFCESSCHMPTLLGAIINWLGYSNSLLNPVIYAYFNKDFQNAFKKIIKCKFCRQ
The data set is described as follows: 35S-GTPγS binding assay, antagonist activity at 5-HT1A receptors. Type of data set: biochemical. Conditions: reversal of the effects of the standard agonist 8-OHDPAT; for IC50: membranes with cloned human 5-HT1A receptors, read-out: 5-HT1A Function IC50. As to the method:
Antagonist activity at 5-HT1A receptors was established by using a ^35S-GTPγS binding assay similar to that used by Lazareno and Birdsall (Br. J. Pharmacol. 109: 1120, 1993), in which the test compound's ability to affect the binding of ^35S-GTPγS to membranes containing cloned human 5-HT1A receptors was determined. Agonists produce an increase in binding whereas antagonists produce no increase but rather reverse the effects of the standard agonist 8-OHDPAT. The test compound's maximum inhibitory effect is represented as the Imax, while its potency is defined by the IC50.

Data set [2] addresses T2, human 5-HT1A receptors (Homo sapiens, UniProt P08908).
T2 construct: expressed in transfected cells; host or cells: CHO cells, stably transfected
T2 sequence (P08908 1-422): T1 sequence (P08908 1-422)
Briefly: [3H] 8-OHDPAT displacement from the 5-HT1A receptor (transfected CHO cells). The class given is binding. An excerpt: High affinity for the serotonin 5-HT1A receptor was established by testing the claimed compound's ability to displace [^3H] 8-OHDPAT (dipropylaminotetralin) from the 5-HT1A serotonin receptor following a modification of the procedure of Hall et al., J. Neurochem. 44, 1685 (1985) which utilizes CHO cells stably transfected with human 5-HT1A receptors.

Data set [3] has as its target T3, serotonin transporter (Rattus norvegicus, UniProt P31652).
T3 construct: displace ^3H-paroxetine from male rat frontal cortical membranes; from tissue; host or cells: male rat frontal cortex membranes
Briefly: 3H-paroxetine displacement, affinity for the serotonin transporter. Type of data set: binding.

Setting [4] is: displacement of [3H] 8-OHDPAT, CHO cells stably transfected with human 5-HT1A receptors, read-out: 5-HT1A Receptor Affinity KI.
The mark [5] stands for this setting: displacement of 3H-paroxetine, male rat frontal cortical membranes, read-out: 5-HT Transporter Affinity KI.

T3 sequence (P31652 whole entry): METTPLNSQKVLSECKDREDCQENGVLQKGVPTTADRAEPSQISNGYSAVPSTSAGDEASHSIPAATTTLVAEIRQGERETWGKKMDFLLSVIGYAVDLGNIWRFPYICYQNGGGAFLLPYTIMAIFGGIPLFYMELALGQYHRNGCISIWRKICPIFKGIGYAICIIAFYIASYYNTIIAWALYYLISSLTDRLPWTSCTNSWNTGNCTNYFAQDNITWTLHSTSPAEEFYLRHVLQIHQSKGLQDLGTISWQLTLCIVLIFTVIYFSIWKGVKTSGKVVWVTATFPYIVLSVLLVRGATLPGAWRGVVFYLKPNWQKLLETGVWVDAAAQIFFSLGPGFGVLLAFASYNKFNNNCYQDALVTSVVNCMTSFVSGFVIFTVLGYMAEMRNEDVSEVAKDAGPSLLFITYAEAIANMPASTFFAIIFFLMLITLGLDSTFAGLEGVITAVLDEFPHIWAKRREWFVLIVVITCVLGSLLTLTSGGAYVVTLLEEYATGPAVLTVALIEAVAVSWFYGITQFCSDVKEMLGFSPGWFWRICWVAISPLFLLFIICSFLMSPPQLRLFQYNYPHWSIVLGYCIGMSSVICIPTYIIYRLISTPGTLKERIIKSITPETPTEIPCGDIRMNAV

Regarding `Fc1ccc2c(C3=CCN(CC4COc5ccc6[nH]c(C(F)(F)F)nc6c5O4)CC3)c[nH]c2c1` (stereo not drawn) [Example 3, 8-[4-(6-Fluoro-1H-indol-3-yl)-3,6-dihydro-2H-pyridin-1-ylmethyl]-2-trifluoromethyl-7,8-dihydro-3H-6,9-dioxa-1,3-diaza-cyclopenta[a]naphthalene], in data set [1], the “5-HT1A Function (Imax), maximum inhibitory effect” value was “(66.5)” and the half-inhibitory concentration (IC50) was found to be 22 nM. Moreover, the Ki in data set [2] was determined as 2.67 nM. The compound also gave a Ki in data set [3] of 1.12 nM.

In the case of `Fc1ccc2[nH]cc(C3=CCN(CC4COc5ccc6[nH]c(C(F)(F)F)nc6c5O4)CC3)c2c1` (stereo not drawn) (as salt: fumarate) [Example 1, 8-[4-(5-Fluoro-1H-indol-3-yl)-3,6-dihydro-2H-pyridin-1-ylmethyl]-2-trifluoromethyl-7,8-dihydro-3H-6,9-dioxa-1,3-diaza-cyclopenta[a]naphthalene], the melting point is 236 to 238 °C.

For the compound `CCc1nc2c3c(ccc2[nH]1)OCC(CN1CC=C(c2c[nH]c4ccccc24)CC1)O3` (stereo not drawn) [Example 6, 8-[4-(1H-Indol-3-yl)-3,6-dihydro-2H-pyridin-1-ylmethyl]-2-ethyl-7,8-dihydro-3H-6,9-dioxa-1,3-diaza-cyclopenta[a]naphthalene], in data set [1], the “5-HT1A Function (Imax), maximum inhibitory effect” value is reported as “(35.0)” and the IC50 was found to be 36 nM. In addition, in data set [2], the affinity corresponds to a Ki of 1.34 nM. This compound also came in with an inhibition constant (Ki) in data set [3] of 0.42 nM.

For `FC(F)(F)c1nc2c3c(ccc2[nH]1)OCC(CN1CC=C(c2c[nH]c4ccccc24)CC1)O3` (stereo not drawn) (as salt: fumarate) [Example 2, 8-[4-(1H-Indol-3-yl)-3,6-dihydro-2H-pyridin-1-ylmethyl]-2-trifluoromethyl-7,8-dihydro-3H-6,9-dioxa-1,3-diaza-cyclopenta[a]naphthalene], the melting point was in the range of 231 to 233 °C.

Take `Fc1cccc2c(C3=CCN(CC4COc5ccc6[nH]c(C(F)(F)F)nc6c5O4)CC3)c[nH]c12` (stereo not drawn) [Example 7, 8-[4-(7-Fluoro-1H-indol-3-yl)-3,6-dihydro-2H-pyridin-1-ylmethyl]-2-trifluoromethyl-7,8-dihydro-3H-6,9-dioxa-1,3-diaza-cyclopenta[a]naphthalene]: in data set [1], the “5-HT1A Function (Imax), maximum inhibitory effect” value was “(89.1)” and the IC50 was found to be 27.4 nM. Moreover, in data set [2], the inhibitory constant (Ki) was 0.81 nM. Besides, in data set [3], the affinity corresponds to a Ki of 0.69 nM.

Regarding `FC(F)(F)C(F)(F)c1nc2c3c(ccc2[nH]1)OCC(CN1CC=C(c2c[nH]c4ccccc24)CC1)O3` (stereo not drawn) [Example 8, 8-[4-(1H-Indol-3-yl)-3,6-dihydro-2H-pyridin-1-ylmethyl]-2-pentafluoroethyl-7,8-dihydro-3H-6,9-dioxa-1,3-diaza-cyclopenta[a]naphthalene], in data set [1], the “5-HT1A Function (Imax), maximum inhibitory effect” value is given as “(91.1)” and the IC50 is 43.6 nM. In addition, in data set [2] (setting [4]), the Ki amounted to 1.88 nM. Also, in data set [3] (setting [5]), the Ki was found to be 1.25 nM.

With `CCc1nc2c3c(ccc2[nH]1)OCC(CN1CC=C(c2c[nH]c4ccccc24)CC1)O3` (stereo not drawn) (as salt: fumarate) [Example 6, 8-[4-(1H-Indol-3-yl)-3,6-dihydro-2H-pyridin-1-ylmethyl]-2-ethyl-7,8-dihydro-3H-6,9-dioxa-1,3-diaza-cyclopenta[a]naphthalene], the melting point lay within 231 to 232 °C.

For `FC(F)(F)c1nc2c3c(ccc2[nH]1)OCC(CN1CC=C(c2c[nH]c4ccccc24)CC1)O3` (stereo not drawn) [Example 2, 8-[4-(1H-Indol-3-yl)-3,6-dihydro-2H-pyridin-1-ylmethyl]-2-trifluoromethyl-7,8-dihydro-3H-6,9-dioxa-1,3-diaza-cyclopenta[a]naphthalene], in data set [1], the “5-HT1A Function (Imax), maximum inhibitory effect” value was “(82.5)” and the IC50 came to 29 nM. Also, the Ki in data set [2] came to 1.76 nM. In data set [3], this compound came in with a Ki of 1.05 nM.

With `Fc1cccc2c(C3=CCN(CC4COc5ccc6[nH]c(C(F)(F)F)nc6c5O4)CC3)c[nH]c12` (stereo not drawn) (as salt: fumarate) [Example 7, 8-[4-(7-Fluoro-1H-indol-3-yl)-3,6-dihydro-2H-pyridin-1-ylmethyl]-2-trifluoromethyl-7,8-dihydro-3H-6,9-dioxa-1,3-diaza-cyclopenta[a]naphthalene], the melting point is 239 to 240 °C.

In the case of `Fc1ccc2[nH]cc(C3=CCN(CC4COc5ccc6[nH]c(C(F)(F)F)nc6c5O4)CC3)c2c1` (stereo not drawn) [Example 1, 8-[4-(5-Fluoro-1H-indol-3-yl)-3,6-dihydro-2H-pyridin-1-ylmethyl]-2-trifluoromethyl-7,8-dihydro-3H-6,9-dioxa-1,3-diaza-cyclopenta[a]naphthalene], the “5-HT1A Function (Imax), maximum inhibitory effect” value in data set [1] is given as “(100)”. In addition, the IC50 in data set [1] came to 93.5 nM. Moreover, the Ki came to 3.07 nM in data set [2] and 1.04 nM in data set [3].

The compound `FC(F)(F)C(F)(F)c1nc2c3c(ccc2[nH]1)OCC(CN1CC=C(c2c[nH]c4ccccc24)CC1)O3` (stereo not drawn) (as salt: fumarate) [Example 8, 8-[4-(1H-Indol-3-yl)-3,6-dihydro-2H-pyridin-1-ylmethyl]-2-pentafluoroethyl-7,8-dihydro-3H-6,9-dioxa-1,3-diaza-cyclopenta[a]naphthalene] showed a melting point of 238 to 239 °C.

Take `Cc1nc2c3c(ccc2[nH]1)OCC(CN1CC=C(c2c[nH]c4ccccc24)CC1)O3` (stereo not drawn) (as salt: fumarate) (hydrate or solvate) [Example 4, 8-[4-(1H-Indol-3-yl)-3,6-dihydro-2H-pyridin-1-ylmethyl]-2-methyl-7,8-dihydro-3H-6,9-dioxa-1,3-diaza-cyclopenta[a]naphthalene]: the melting point was in the range of 219 to 222 °C.

`Fc1ccc2c(C3=CCN(CC4COc5ccc6[nH]c(C(F)(F)F)nc6c5O4)CC3)c[nH]c2c1` (stereo not drawn) (as salt: fumarate) (hydrate or solvate) [Example 3, 8-[4-(6-Fluoro-1H-indol-3-yl)-3,6-dihydro-2H-pyridin-1-ylmethyl]-2-trifluoromethyl-7,8-dihydro-3H-6,9-dioxa-1,3-diaza-cyclopenta[a]naphthalene] displayed a melting point of 215 to 220 °C.

Turning to `Cc1nc2c3c(ccc2[nH]1)OCC(CN1CC=C(c2c[nH]c4ccccc24)CC1)O3` (stereo not drawn) [Example 4, 8-[4-(1H-Indol-3-yl)-3,6-dihydro-2H-pyridin-1-ylmethyl]-2-methyl-7,8-dihydro-3H-6,9-dioxa-1,3-diaza-cyclopenta[a]naphthalene], in data set [1], the “5-HT1A Function (Imax), maximum inhibitory effect” value is “(100)” and the IC50 is 10 nM. The compound also displayed an inhibitory constant (Ki) in data set [2] of 1.58 nM. This compound also yielded a Ki in data set [3] of 0.41 nM.

`Cc1nc2ccc3c(c2n1C)OC(CN1CC=C(c2c[nH]c4ccccc24)CC1)CO3` (stereo not drawn) [Example 5, 8-[4-(1H-Indol-3-yl)-3,6-dihydro-2H-pyridin-1-ylmethyl]-1,2-dimethyl-7,8-dihydro-3H-6,9-dioxa-1,3-diaza-cyclopenta[a]naphthalene]: in data set [1], the “5-HT1A Function (Imax), maximum inhibitory effect” value is “(100)” and the IC50 is 6520 nM. For the same compound, the Ki in data set [2] (setting [4]) was determined as 52 nM. For the same compound, the Ki in data set [3] (setting [5]) was determined as 2 nM.

Broadly, the IC50 is the concentration that gives 50% inhibition. The Ki is a dissociation constant, usually derived from enzyme kinetics or from competition with a known ligand. In general, melting point refers to the temperature, or range, at which the solid turns liquid.
